The values below come from paper PMC8199067, “Urolithin and Reduced Urolithin Derivatives as Potent Inhibitors of Tyrosinase and Melanogenesis: Importance of the 4-Substituted Resorcinol Moiety” (International Journal of Molecular Sciences, 2021).

The target of series [1] is T1, mushroom tyrosinase (Agaricus bisporus, UniProt C7FF04). Kind of series: Mushroom tyrosinase inhibitory assay (L-tyrosine substrate). Type of series: biochemical. Conditions: for inhibition at 50 µM / Tyrosinase Inhibition (%): L-tyrosine as substrate, mean ± SEM, NI means no inhibition, 50 μM. On the procedure:
The experiment was repeated three times. Mushroom tyrosinase inhibitions % were calculated using:% Inhibition = [1 − (A/B)] × 100(1) where A is the absorbance of the test compound and B is the absorbance of the blank.
Log-linear curves were plotted, and their equations were determined.
Target sequence in this assay (C7FF04 1-392 limits assumed): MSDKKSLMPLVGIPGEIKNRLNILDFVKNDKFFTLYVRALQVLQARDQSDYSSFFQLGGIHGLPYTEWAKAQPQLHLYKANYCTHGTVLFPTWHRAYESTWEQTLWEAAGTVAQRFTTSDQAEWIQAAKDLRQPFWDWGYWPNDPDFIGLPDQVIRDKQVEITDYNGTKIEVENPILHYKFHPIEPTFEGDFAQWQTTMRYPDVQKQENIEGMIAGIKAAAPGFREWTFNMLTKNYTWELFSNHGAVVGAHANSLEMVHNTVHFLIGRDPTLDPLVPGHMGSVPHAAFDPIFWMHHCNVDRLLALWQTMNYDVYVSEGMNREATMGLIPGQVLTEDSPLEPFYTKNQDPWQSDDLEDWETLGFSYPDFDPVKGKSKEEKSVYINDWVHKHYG

Series [2] has as its system B16F10 melanoma cells. More on the design: method as in PMID 28726389. The conditions noted are these: B16F10 melanoma cells ref 70; cited from earlier work.
For series [3], the system named is B16F10 melanoma cells. More on the design: method as in Su and co-workers. The conditions noted are these: at the same concentration (20 µM) ref Su and co-workers; cited from earlier work.
Series [4] has as its target T1, mushroom tyrosinase. Kind of series: Kinetic analysis of mushroom tyrosinase inhibition, Lineweaver–Burk plots. Type of series: biochemical. As to the method: Briefly, 170 μL of a mixture of an aqueous solution of L-[…].0, 2.0, 4.0, or 8.0 mM and 50 mM of potassium phosphate (pH 6.5) was added to a 96-well plate. […] Lineweaver-Burk plots were used to determine Vmax (maximal reaction rates) and KM (Michaelis-Menten constants) of mushroom tyrosinase activities.
Target sequence in this assay (C7FF04 1-392): as the sequence (C7FF04 1-392 limits assumed) above

A short description of series [5]: EZ-cytox cell viability assay. Type of series: cell-based, murine. The conditions noted are these: mouse, B16F10 melanoma cells, 20 µM. On the procedure: (§1) EZ-cytox assays were performed to examine whether these compounds are cytotoxic.
(§2) B16F10 murine melanoma cells were purchased from the American Type Culture Collection (ATCC, Manassas, VA, USA). Cells were cultured in Dulbecco’s modified Eagle’s medium (10% fetal bovine serum (FBS), and 1% streptomycin) obtained from Gibco/Thermo Fisher Scientific (Carlsbad, CA, USA) at 37 °C in a 5% CO2 environment. These cultured cells were used for cell viability, melanin content, and cellular tyrosinase inhibitory assays.
(§3) EZ-cytox assays were performed on 1c, 1h, and 2a, according to previously described. B16F10 cells were seeded in a 96-well plate at a density of 5 × 10^4 cells/well and incubated at 37 °C in a humidified 5% CO2 atmosphere overnight. Cells were then treated with different concentrations of 1c, 1h, or 2a (0, 1, 2, 5, 10, or 20 µM) and incubated for 24 h under the same conditions. EZ-cytox solution (10 µL) was then added and the plate was incubated for 3 h at 37 °C in a humidified 5% CO2 atmosphere. Optical densities of wells were measured at 450 nm using an ELISA reader. All experiments were independently repeated three times.

Series [6] concerns B16F10 melanoma cells. Briefly: EZ-cytox cell viability assay. The series is classed as cell-based, murine. The conditions noted are these: 1–20 µM, 24 h. As to the method:
as §1, §2, §3

Molecules are shown by their SMILES. Values joined by “and” are separate entries in the source; they are usually repeats but may differ in a detail not shown here. Equal entries are not always repeated. Where two headings read alike, the source gives them in different places.

As usually defined, the inhibition is how much of the control response was suppressed. Take `O=c1oc2cc(O)ccc2c2ccccc12` [Compound 1a, 3-Hydroxy-6H-benzo[c]chromen-6-one]: in series [1], the inhibition at 50 µM was less than 0%. Further, the “Tyrosinase Inhibition (%)” value in series [1] (listed as urolithin B) is recorded as “did not inhibit tyrosinase”; in series [1] (listed as urolitin B), “did not show inhibitory activity”. Moreover, the Antimelanogenic effect result in series [2] is on record as “antimelanogenic effects through tyrosinase inhibition”. Further, in series [3], the “Cytotoxicity compared with 1c and 1h” value is recorded as “higher cytotoxicity”.

`O=c1oc2cc(O)ccc2c2ccc(O)cc12` [Compound 1e, 3,8-Dihydroxy-6H-benzo[c]chromen-6-one] yielded an inhibition at 50 µM in series [1] of less than 0%. For the same compound, the “Tyrosinase Inhibition (%)” value in series [1] (listed as urolithin A) is recorded as “did not show inhibitory activity”. Moreover, the Antimelanogenic effect result in series [2] was “antimelanogenic effects through tyrosinase inhibition”. In series [3], the “Cytotoxicity compared with 1c and 1h” value was “higher cytotoxicity”.

Broadly, the IC50 is the concentration needed to halve the response being measured. By Vmax is commonly meant the top rate of the reaction or transport when substrate is in excess. The term viability denotes a read-out of living cells in per cent, often relative to untreated cells. `COc1ccc2c(c1)c(=O)oc1cc(O)cc(O)c12` [Compound 1h, 1,3-Dihydroxy-8-methoxy-6H-benzo[c]chromen-6-one]: in series [1], the IC50 is 4.14 ± 0.1 µM. The “Inhibition (%), single determinations” value in series [1] (0.78 μM) is 15.61% and 18.94%; in series [1] (1.56 μM) it was 24.63% and 31.11%; in series [1] (3.13 μM) it was 48.92%; in series [1] (6.25 μM), 63.95% and 66.79%. In addition, the inhibition at 0.78 µM came out at 16.7 ± 1.1% in series [1] (0.78 μM, read-out: Average of Inhibition (%)) and 15.7% in series [1] (0.78 μM, read-out: Inhibition (%), single determinations). In addition, the inhibition at 1.56 µM in series [1] (1.56 μM, read-out: Average of Inhibition (%)) worked out at 28 ± 1.88%; in series [1] (1.56 μM, read-out: Inhibition (%), single determinations) it was 28.3%. In addition, the inhibition at 3.13 µM in series [1] (3.13 μM, read-out: Average of Inhibition (%)) turned out to be 48.78 ± 0.07%; in series [1] (3.13 μM, read-out: Inhibition (%), single determinations), 48.7%. Also, the inhibition at 6.25 µM in series [1] (6.25 μM, read-out: Average of Inhibition (%)) amounted to 64.9 ± 0.94%; in series [1] (6.25 μM, read-out: Inhibition (%), single determinations), 64%. In series [1], the “Tyrosinase Inhibition (%)” value amounted to 94.86 ± 0.16%. Moreover, testing at 50 µM in series [1] gave an inhibition of 95%. In addition, the “Mode of tyrosinase inhibition” value in series [4] (Lineweaver–Burk analysis, L-tyrosine as substrate) is reported as “competitive inhibitors”. Further, the “Vmax” value in series [4] (inhibitor 2.5 μM, L-tyrosine 1.0–8.0 mM) worked out at 0.031 mM/min; in series [4] (inhibitor 5 μM, L-tyrosine 1.0–8.0 mM), 0.031 mM/min; in series [4] (inhibitor 10 μM, L-tyrosine 1.0–8.0 mM) it was 0.031 mM/min; in series [4] (not dependent on inhibitor concentration), 0.031 mM/min. This compound returned a viability at 24 h, 20 µM in series [5] of 70.8%. Further, in series [6], the Cytotoxic effect result is “weakly cytotoxic”.
